Literature values in PubChem BioAssay AID1259410 (Chemical Carcinogenesis Research Information System (CCRIS), 2018).

Tested on: rodent tumor promotion studies, tumor incidence
Assay: CCRIS tumor promotion studies

In the case of CNCCCN1c2ccccc2CCc2ccccc21, the outcome (Carcinogen: AZOXYMETHANE, 25843-45-2, Doses [Carcinogen]: 7.4 MG/KG BW IN 0.9% SALINE 1/WK FOR 10 WK, Doses [Promoter]: 0, 10 MG/KG BW IN 0.9% SALINE 1/2 D FOR 10 WK ON SAME DAY AS CARCINOGEN ADMINISTRATION (STUDY DURATION: 35 WK), Route [Carcinogen]: SUBCUTANEOUS, Route [Promoter]: SUBCUTANEOUS, Species: RAT, Strain/Sex: WISTAR/MALE) is listed as “colon: tumor”.

In the case of CCCCCCCCCCCC1(CCCC(=O)OC2C(C)C3(O)C(C=C(CO)CC4(O)C(=O)C(C)=CC43)C3C(C)(C)C23OC(C)=O)OCC(C)(C)N1[O] (stereo not given), the outcome (Carcinogen: 7,12-DIMETHYLBENZ[A]ANTHRACENE, 57-97-6, Doses [Carcinogen]: 100 NMOL ONCE, Doses [Promoter]: 0, 5 NMOL 2/WK FOR 24 WK BEGINNING 1 WK POST CARCINOGEN DOSE (STUDY DURATION: 25 WK), Route [Carcinogen]: DERMAL, Route [Promoter]: DERMAL, Species: MOUSE, Strain/Sex: NMRI/FEMALE) is listed as “skin: tumor”.

For CC(O)CN(C)N=O (stereo not given), the outcome (Carcinogen: 1-NITRO-1,3-DIMETHYLUREA, 13256-32-1, Doses [Carcinogen]: 10 MG/ML IN ETHYL ACETATE/CORN OIL (1:1) 1/WK FOR 2 WK, Doses [Promoter]: 0, 20 MG/L IN DRINKING WATER 5D/WK FOR 40 WK BEGINNING 1/WK POST CARCINOGEN TREATMENT (STUDY DURATION: 43 WK), Route [Carcinogen]: GAVAGE, Route [Promoter]: ORAL, Species: RAT, Strain/Sex: F344/MALE) is listed as “kidney: nephroblastoma”, the outcome (Carcinogen: 1-NITROSO-1,3-DIETHYLUREA, 49540-32-1, Doses [Carcinogen]: 12 MG/ML IN ETHYL ACETATE/CORN OIL (1:1) 1/WK FOR 2 WK, Doses [Promoter]: 0, 20 MG/L IN DRINKING WATER 5 D/WK FOR 40 WK BEGINNING 1/WK POST CARCINOGEN TREATMENT (STUDY DURATION: 43 WK), Route [Carcinogen]: GAVAGE, Route [Promoter]: ORAL, Species: RAT, Strain/Sex: F344/MALE) is listed as “thyroid: adenocarcinoma; lung: adenocarcinoma; kidney: nephroblastoma” and the outcome (Carcinogen: NITROSOBIS(2-OXOPROPYL)AMINE, 60599-38-4, Doses [Carcinogen]: 12 MG/ML IN ETHYL ACETATE/CORN OIL (1:1) 2/WK FOR 2 WK, Doses [Promoter]: 0, 20 MG/L IN DRINKING WATER 5D/WK FOR 40 WK BEGINNING 1/WK POST CARCINOGEN TREATMENT (STUDY DURATION: 43 WK), Route [Carcinogen]: GAVAGE, Route [Promoter]: ORAL, Species: RAT, Strain/Sex: F344/MALE) is listed as “kidney: renal cell carcinoma”.

For Cc1ccc(O)c(O)c1, the outcome (Carcinogen: N-METHYL-N'-NITRO-N-NITROSOGUANIDINE, 70-25-7, Doses [Carcinogen]: 150 MG/KG IN DMSO ONCE, Doses [Promoter]: 0, 1.5% IN DIET FOR 51 WK BEGINNING 1 WK AFTER CARCINOGEN DOSE (STUDY DURATION: 52 WK), Route [Carcinogen]: GAVAGE, Route [Promoter]: ORAL, Species: RAT, Strain/Sex: F344/MALE) is given as “forestomach: squamous cell carcinoma; glandular stomach: adenocarcinoma”.

In the case of [K+], the outcome (Carcinogen: N-BIS-(2-HYDROXYPROPYL)NITROSAMINE [53609-64-6], Doses [Carcinogen]: 2800 MG/KG BW ONCE (STUDY DURATION: 83 WK), Doses [Promoter]: 1000 PPM IN DRINKING WATER FOR 82 WK BEGINNING 1 WK POST LAST CARCINOGEN DOSE (STUDY DURATION: 83 WK), Route [Carcinogen]: SUBCUTANEOUS, Route [Promoter]: ORAL, Species: RAT, Strain/Sex: F344/MALE) is listed as “thyroid gland: follicular cell carcinoma” and the outcome (Carcinogen: N-Ethyl-N-hydroxyethylnitrosamine, 13147-25-6, Doses [Carcinogen]: 500 ppm in drinking water for 2 wk, Doses [Promoter]: 0, 350, 1750 ppm in drinking water beginning post carcinogen treatment and continuing for 24 wk (study duration: 26 wk), Doses [Promoter]: 0, 350, 1750 ppm in drinking water beginning post carcinogen treatment and continuing for 24 wk (study duration: 26 wk), Route [Carcinogen]: Oral, Route [Promoter]: Oral, Species: Rat, Strain/Sex: F344/Male (15/group)) is listed as “kidney: renal cell tumors (no promoting effect observed)”.

For CC[C@H](C)[C@H](N)C(=O)O, the outcome (Carcinogen: N-BUTYL-N-(4-HYDROXYBUTYL)NITROSAMINE, 3817-11-6, Doses [Carcinogen]: 0.05% IN DRINKING WATER FOR 4 WK, Doses [Promoter]: 0, 2% IN DIET BEGINNING POST CARCINOGEN TREATMENT AND CONTINUING FOR DURATION OF STUDY (STUDY DURATION: 40 WK), Route [Carcinogen]: ORAL, Route [Promoter]: ORAL, Species: RAT, Strain/Sex: F344/MALE) is given as “bladder: carcinoma”.

In the case of Cc1c2ccccc2c(C)c2c1ccc1ccccc12, the outcome (Carcinogen: Diethylstilbestrol, 56-53-1, Doses [Carcinogen]: 0, 0.1, 1, 10, 100 ug in 0.05 ml sesame oil once at birth, Doses [Carcinogen]: 0, 0.1, 1, 10, 100 ug in 0.05 ml sesame oil once at birth, Doses [Promoter]: 10 mg in 1 ml sesame oil once by gastric intubation at 50 days of age, study duration 175 or 300 days of age, Route [Carcinogen]: Subcutaneous, Route [Promoter]: Oral, Species: Rat, Strain/Sex: Sprague-Dawley/Female (22/control group; 15; 21; 13; 16/experimental group)) is listed as “mammary carcinomas: 50, 54, 91, 39, 19% at 175 days and 77, 87, 100, 85, 75% at”.

In the case of CCCC[C@@H](C)[C@@H](OC(=O)C[C@@H](CC(=O)O)C(=O)O)[C@H](C[C@@H](C)C[C@H](O)CCCC[C@@H](O)C[C@H](O)[C@H](C)N)OC(=O)C[C@@H](CC(=O)O)C(=O)O, the outcome (Doses [Carcinogen]: 100 PPB IN WATER FOR 30 MIN, Doses [Promoter]: 0, 23, 104 PPM IN DIET FOR 42 WK BEGINNING 1 MO POST CARCINOGEN TREATMENT (STUDY DURATION: 64 WK), Doses [Promoter]: 0, 23, 104 PPM IN DIET FOR 42 WK BEGINNING 1 MO POST CARCINOGEN TREATMENT (STUDY DURATION: 64 WK), Route [Carcinogen]: IMMERSION, Route [Promoter]: ORAL, Species: FISH, Strain/Sex: SHASTA RAINBOW TROUT/MALE,FEMALE) is listed as “liver: tumor”.

For CCC1(CCCCCCCCCCCCC(=O)OC2C(C)C3(O)C(C=C(CO)CC4(O)C(=O)C(C)=CC43)C3C(C)(C)C23OC(C)=O)OCC(C)(C)N1[O] (stereo not given), the outcome (Carcinogen: 7,12-DIMETHYLBENZ[A]ANTHRACENE, 57-97-6, Doses [Carcinogen]: 100 NMOL ONCE, Doses [Promoter]: 0, 20 NMOL 2/WK FOR 24 WK BEGINNING 1 WK POST CARCINOGEN DOSE (STUDY DURATION: 25 WK), Route [Carcinogen]: DERMAL, Route [Promoter]: DERMAL, Species: MOUSE, Strain/Sex: NMRI/FEMALE) is given as “skin: tumor”.

In the case of CC(C)NCC(O)c1ccc(O)c(O)c1 (stereo not given), the outcome (Carcinogen: N-NITROSOMORPHOLINE, 59-89-2, Doses [Carcinogen]: 175 MG/L IN DRINKING WATER FOR 8 WK, Doses [Promoter]: 0, 0.1 MG/KG BW IN OLIVE OIL 1/2 D FOR 13 WK BEGINNING SIMULTANEOUSLY WITH CARCINOGEN TREATMENT (STUDY DURATION: 13 WK), Route [Carcinogen]: ORAL, Route [Promoter]: SUBCUTANEOUS, Species: RAT, Strain/Sex: SPRAGUE-DAWLEY/MALE) is listed as “liver: carcinoma”.

In the case of CCC1(CC)C(=O)NC(=O)NC1=O, the outcome (Carcinogen: DIETHYLNITROSAMINE, 55-18-5, Doses [Carcinogen]: 80 MG/KG BW ONCE, Doses [Promoter]: 0, 0.5% IN DIET FOR 39 WK BEGINNING 1 WK POST CARCINOGEN DOSE (STUDY DURATION: 40 WK), Route [Carcinogen]: INTRAPERITONEAL, Route [Promoter]: ORAL, Species: RAT, Strain/Sex: F344/MALE) is listed as “liver: tumor”.

In the case of Cc1cc(O)c2c(c1)Cc1cccc(O)c1C2=O, the outcome (Carcinogen: 7,12-DIMETHYLBENZ(A)ANTHRACENE, Doses [Carcinogen]: 10 NMOL ONCE, Doses [Promoter]: 50 UG 2/WK FOR 21 WK, Route [Carcinogen]: DERMAL, Route [Promoter]: DERMAL, Species: MOUSE, Strain/Sex: SENCAR/FEMALE) is listed as “integumentary system (skin): papilloma” and the outcome (Carcinogen: 7,12-DIMETHYLBENZ[A]ANTHRACENE, 57-97-6, Doses [Carcinogen]: 6.4 UG ONCE, Doses [Promoter]: 0, 52.8 UG 1/WK FOR 10 WK BEGINNING 2 WK POST CARCINOGEN DOSE (STUDY DURATION: 32 WK), Route [Carcinogen]: DERMAL, Route [Promoter]: DERMAL, Species: MOUSE, Strain/Sex: SENCAR/FEMALE) is listed as “skin: papilloma”.

For O=C1C2(Cl)C3(Cl)C4(Cl)C(Cl)(Cl)C5(Cl)C3(Cl)C1(Cl)C5(Cl)C24Cl (stereo not given), the outcome (Carcinogen: DIETHYLNITROSAMINE, 55-18-5, Doses [Carcinogen]: 20 MG/KG IN WATER ONCE, Doses [Promoter]: 0, 9 MG/KG 2/WK FOR 27 WK BEGINNING 10 D POST CARCINOGEN DOSE (STUDY DURATION: 30 WK), Route [Carcinogen]: GAVAGE, Route [Promoter]: SUBCUTANEOUS, Species: RAT, Strain/Sex: SPRAGUE-DAWLEY/FEMALE) is given as “liver: hepatocellular carcinoma”.

In the case of Cc1ccc(O)c(C(C)(C)C)c1, the outcome (Carcinogen: N-BUTYL-N-(4-HYDROXYBUTYL)NITROSAMINE, 3817-11-6, Doses [Carcinogen]: 0.5% IN DRINKING WATER FOR 4 WK, Doses [Promoter]: 0, 1% IN DIET FOR 32 WK BEGINNING 3 D POST CARCINOGEN TREATMENT (STUDY DURATION: 36 WK), Route [Carcinogen]: ORAL, Route [Promoter]: ORAL, Species: RAT, Strain/Sex: F344/MALE) is given as “bladder: carcinoma, papilloma”.

In the case of NC[C@@H]1O[C@H](O[C@H]2[C@@H](O)[C@H](O[C@@H]3[C@@H](O)[C@H](N)C[C@H](N)[C@H]3O[C@H]3O[C@H](CN)[C@@H](O)[C@H](O)[C@H]3N)O[C@@H]2CO)[C@H](N)[C@@H](O)[C@@H]1O, the outcome (Carcinogen: AZOXYMETHANE, 25843-45-2, Doses [Carcinogen]: 8 MG/KG 1/WK FOR 8 WK, Doses [Promoter]: 0, 100, 200 PPM IN DRINKING WATER BEGINNING 2 WK PRIOR TO CARCINOGEN TREATMENT AND CONTINUING FOR DURATION OF STUDY (STU, Doses [Promoter]: 0, 100, 200 PPM IN DRINKING WATER BEGINNING 2 WK PRIOR TO CARCINOGEN TREATMENT AND CONTINUING FOR DURATION OF STUDY (STU, Route [Carcinogen]: SUBCUTANEOUS, Route [Promoter]: ORAL, Species: RAT, Strain/Sex: F344/FEMALE) is given as “colon: adenocarcinoma”.

In the case of Cn1c(N)nc2c3cccnc3ccc21, the outcome (Carcinogen: Diethyl nitrosamine (DEN), 55-18-5 and dimethylhydrazine (DMH), 30260-66-3, Carcinogen: Diethyl nitrosamine (DEN), 55-18-5 and dimethylhydrazine (DMH), 30260-66-3, Doses [Carcinogen]: DEN, 200 mg/kg once at -3 days, DMH, 40 mg/kg 4 injections between day 0 and wk 2, Doses [Promoter]: 0, 300 ppm in diet from week 2 to 29, study duration 29 wk, Doses [Promoter]: 0, 300 ppm in diet from week 2 to 29, study duration 29 wk, Route [Carcinogen]: Intraperitoneal (DEN) and subcutaneous (DMH), Route [Promoter]: Oral, Species: Rat, Strain/Sex: F344/Du Crj (20/group with 11 survivors)) is listed as “liver: hepatocellular adenoma and carcinoma. colon adenoma and carcinoma. signif”.
